# How the values were obtained:
# PDF1.2 mRNA = test: MeJA treatment of plants, RNA gel blot of JA-responsive PDF1.2 mRNA; type: in vivo, Arabidopsis
# THI2.1 mRNA = test: MeJA treatment of plants, RNA gel blot of JA-responsive THI2.1 mRNA; type: in vivo, Arabidopsis; settings: for THI2.1 mRNA accumulation after MeJA treatment: not shown
# [1] = nahG expressing wild type plants
structure (smiles),measurement,setting,value
"CC/C=C\CC1C(=O)CCC1CC(=O)OC (stereo not drawn) [MeJA, methyl jasmonate]",PDF1.2 mRNA accumulation after MeJA treatment,PDF1.2 mRNA; mpk4/nahG plants,not inducible
same,induction of PDF1.2 expression,"PDF1.2 mRNA; mpk4 mutant plants, sprayed with 50 μM MeJA, harvested after 48 hours",failed to induce
same,PDF1.2 mRNA accumulation after MeJA treatment,PDF1.2 mRNA; [1],induced
same,THI2.1 mRNA accumulation after MeJA treatment,THI2.1 mRNA; mpk4/nahG plants,not inducible
same,induction of THI2.1 expression,"THI2.1 mRNA; mpk4 mutant plants, sprayed with 50 μM MeJA, harvested after 48 hours, data not shown",failed to induce
same,THI2.1 mRNA accumulation after MeJA treatment,THI2.1 mRNA; [1],induced

# Reference: patent US20040172685A1, “Method of using MAPK4 and orthologues thereof to control plant disease resistance and plant growth” (priority 1999, published 2004)
